The target in one test is hOX1R (Homo sapiens, UniProt O43613). The experiment in a line: FLIPR Ca2+ flux assay, orexin-1 receptor. It counts as cell-based. Conditions: CHO cells expressing orexin-1 receptor; agonist 70 pM Ala-6,12 orexin-A.
In the next test the target is human orexin-2 receptor (Homo sapiens (Human), UniProt O43614). In words: FLIPR Ca2+ flux assay, orexin-2 receptor. The format is cell-based. Particulars: CHO cells expressing human orexin-2 receptor; agonist 70 pM Ala-6,12 orexin-A; read-out: hOX2R FLIPR IC50. Put shortly: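 CHO cells expressing rat orexin-1 or human orexin-2 receptor, loaded with Fluo-4AM, preincubated 5 min with compound, then stimulated with Ala-6,12 human orexin-A at 70 pM final in HBSS/20 mM HEPES/0.1% BSA/2.5 mM probenecid, pH 7.4. Fluorescence peak height over 5 min vs agonist-alone gave IC50.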

A value given as a limit tells only on which side of the number the result lay.

Sequence of human orexin-2 receptor (O43614 whole entry): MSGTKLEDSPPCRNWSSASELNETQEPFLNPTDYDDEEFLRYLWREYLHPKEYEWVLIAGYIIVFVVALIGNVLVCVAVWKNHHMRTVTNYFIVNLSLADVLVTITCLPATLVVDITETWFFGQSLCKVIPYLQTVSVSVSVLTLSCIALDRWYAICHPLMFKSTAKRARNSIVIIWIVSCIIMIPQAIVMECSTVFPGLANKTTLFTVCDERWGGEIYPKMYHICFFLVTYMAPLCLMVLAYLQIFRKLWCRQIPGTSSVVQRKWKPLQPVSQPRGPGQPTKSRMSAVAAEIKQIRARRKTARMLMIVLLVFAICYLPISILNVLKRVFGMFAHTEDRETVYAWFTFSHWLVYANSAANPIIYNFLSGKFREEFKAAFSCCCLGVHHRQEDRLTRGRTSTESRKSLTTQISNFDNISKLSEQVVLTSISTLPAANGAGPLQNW

For `COc1ccnc(O[C@@H]2CC[C@@H](C)N(C(=O)c3ccccc3-n3nccn3)C2)c1` [Example 2, 4-methoxy-2-{[(3R,6R)-6-methyl-1-{[2-(2H-1,2,3-triazol-2-yl)phenyl]carbonyl}piperidin-3-yl]oxy}pyridine], the IC50 on hOX1R worked out at 617 nM; at human orexin-2 receptor it was 12.5 nM.

With `C[C@@H]1CC[C@@H](Oc2cc(OC(F)F)ccn2)CN1C(=O)c1ccccc1C1(C#N)CC1` [Example 56, 1-(2-{[(2R,5R)-5-{[4-(difluoromethoxy)pyridin-2-yl]oxy}-2-methylpiperidin-1-yl]carbonyl}phenyl) cyclopropane-carbonitrile], the IC50 at hOX1R was determined as 1140 nM; at human orexin-2 receptor, 11 nM.

`C[C@@H]1CC[C@@H](Oc2cc(OCC(F)F)ccn2)CN1C(=O)c1ncccc1-n1nccn1` [Example 33, 2-{[(2R,5R)-5-{[4-(2,2-difluoroethoxy)pyridin-2-yl]oxy}-2-methylpiperidin-1-yl]carbonyl}-3-(2H-1,2,3-triazol-2-yl)pyridine]: the 50% inhibitory concentration (IC50) was over 10000 nM at hOX1R and 71 nM at human orexin-2 receptor.

The values above are taken from patent US9745284B2, “2-pyridyloxy-4-ether orexin receptor antagonists” (MERCK SHARP & DOHME CORP., priority 2013, dated 2017).
